According to patent US10183011B2, “Anti-depression compounds” (Board of Regents of the University of Texas System, priority 2009, dated 2019):
“Also recorded” adds a separate entry of the source.

Key:
[1] = system: SNc dopaminergic neurons; assay: MPTP-toxicity to SNc dopaminergic neurons, treatment started 24 hours after the last MPTP dose; format: in vivo, mouse (C57Bl/6); settings: new analogs, 10 mice for each compound
Procedure: FIG. 29A and FIG. 29B. Neuroprotective efficacy of P7C3 and P7C3A20 from MPTP-toxicity to SNc dopaminergic neurons. FIG. 29A—Test compounds were evaluated by dose response assay for their ability to block MPTP-neurotoxicity in the SNc. […] VEH group contained 30 animals: 15 animals that received the P7C3A20/P7C3 vehicle, and 15 animals that received Dimebon vehicle (saline). […] Representative immunohistochemical pictures of TH-staining in the SNc are shown below the graph. Dosing is expressed as total mg/day, and was administered intraperitoneally in divided doses twice daily. Data are expressed as mean±SEM. […] P7C3A20 does so with greater effect, and Dimebon offers no protection. Striatal sections were obtained from the same mice used in FIG. 2, and compound treatment groups are from mice that received a dose of 20 mg/kg/d.
We compared the protective efficacy of our agents in the Tatton and Kish model of MPTP administration, which induces prolonged apoptotic death of SNc dopaminergic neurons lasting about 3 weeks after a short course of daily MPTP administration. Mice were treated daily for 5 days with 30 mg/kg/day free base MPTP. On the sixth day, 24 hours after receiving the fifth and final dose of MPTP, daily treatment with P7C3, P7C3A20, Dimebon or vehicle was initiated. […] Dose-response studies were conducted in which mice received twice daily doses of each compound (or vehicle) for the ensuing 21 days (FIG. 29A). […] At the end of the 21 day treatment period, mice were sacrificed by transcardial perfusion with 4% paraformaldehyde, and fixed brains were sectioned through the striatum and SNc at 30 μM intervals. Every fourth section (spaced 120 μM apart) was stained with antibodies specific to tyrosine hydroxylase (TH) (Abcam, rabbit anti-TH, 1:2500). The TH enzyme catalyzes the conversion of the amino acid L-tyrosine to L-3,4-dihydroxyphenylalanine (L-DOPA), which serves as the precursor for dopamine. TH staining thus provides a means to immunohistochemically identify dopaminergic neurons. By counting the number of TH+ cells in the SNc, we were able to assess the neuroprotective efficacy of the three chemicals following MPTP exposure. All microscopic analysis was performed by two investigators, blind to treatment group.
15 adult male C57Bl/6 mice were individually housed for one week and then injected daily for 5 days with 30 mg/kg/day (i.p.) free base MPTP (Sigma). On day 6, 24 hours after receiving the fifth and final dose of MPTP, daily treatment with P7C3, P7C3A20, Dimebon or vehicle was initiated. Mice were housed in disposable caging, and protective gear and precautions were implemented for handling MPTP in accordance with UT Southwestern Medical Center policy. Dose response studies were conducted in which mice received twice daily doses of each compound (or vehicle) by intraperitoneal injection for the following 21 days, after which mice were sacrificed by transcardial perfusion with 4% paraformaldehyde. Brains were dissected, fixed overnight in 4% paraformaldehyde, and cryoprotected in sucrose for freezing by standard procedures. Frozen brains were sectioned through the striatum and SNc at 30 uM intervals, and every fourth section (spaced 120 μM apart) was stained with antibodies directed against tyrosine hydroxylase (TH) (Abcam, rabbit anti-TH, 1:2500). Diaminobenzidine was used as a chromagen, and tissue was counter-stained with hematoxylin to aid in visualization of the neuroanatomy. Images were analyzed with a Nikon Eclipse 90i motorized research microscope with Plan Apo lenses coupled with Metamorph Image Acquisition software (Nikon). TH+ neurons were counted with Image J software (NIH) in every section by 2 blinded investigators and results were averaged and multiplied by the sectioning interval to determine the total number of TH+ neurons per SNc.

[2] = system: neural precursor cells in the subgranular zone of the dentate gyrus; assay: In vivo pro-neurogenic efficacy/neuroprotection assay: intracerebroventricular infusion, BrdU incorporation in the dentate gyrus; design: species or system mouse (C57/Bl6); settings: direct administration into the brain via Alzet minipumps for one week, 10 μM unless stated
Procedure: Compounds were evaluated for pro-neurogenic efficacy/neuroprotection in our standard in vivo assay at 10 μM concentration in four 12 week old adult male C57/Bl6 mice.
In an effort to identify compounds that might stimulate the birth of new neurons, or protect newborn neurons from cell death, a library of 1,000 compounds was screened using an in vivo assay. In the initial screen, compounds were randomly pooled into groups often and administered intracerebroventricularly at a constant rate over seven days into the left lateral ventricle of living mice via Alzet osmotic mini-pumps. Compounds were administered at a concentration of 10 μM for each molecule, making a total solute concentration of 100 μM. After seven days of infusion at a constant rate of 0.5 μL/hour, a total of 84 μL of volume will have left the pump (0.00084 μMoles) and entered the cerebrospinal fluid. The average volume of a brain from a 12 week old male, C57/B6 mouse in our study is 500 mm^3. […] Under these conditions, at the end of one week of infusion each compound would be present at 1.7 μMolar concentration. Since the actual amount of chemical compound in the brain is likely to be only a fraction of this predicted level, it is reasonable to estimate that compounds were administered at mid to low-nanomolar concentrations.
During compound infusion, animals were intraperitoneally (IP) injected daily with the thymidine analog, bromodeoxyuridine (BrdU), as a means of scoring the birth and survival of proliferating neural precursor cells in the hippocampus. Because both social interaction and voluntary exercise are known to stimulate hippocampal neurogenesis, mice were housed individually without access to running wheels throughout the screening period. Following the week-long period of compound administration, animals were perfused and sacrificed. Dissected brain tissue was fixed, embedded, sectioned, stained with antibodies to BrdU, and evaluated by light microcopy as a means of quantifying neurogenesis and survival of newborn neural precursor cells localized to the subgranular layer of the dentate gyrus on the brain hemisphere contralateral to the side of mini-pump cannulation. Every fifth section throughout the entire rostral-caudal extent of the hippocampus was analyzed, and the total number of BrdU+ cells was normalized against the measured volume of the dentate gyrus. Because both increased proliferation and survival of newborn neurons are important screening parameters, the screen was conducted over seven days in order to cast a wide net to detect molecules that might augment either process. […] Intracranial infusions of either fibroblast growth factor 2 (FGF-2) or artificial cerebral spinal fluid (aCSF) vehicle via the same, week-long protocol were employed as positive and negative controls. There was no difference in the number of BrdU-labeled cells in the dentate gyrus between mice subjected to surgical pump implantation and infusion with vehicle, and mice having had no surgery (FIG. 2). This confirmed the validity of the in vivo approach to assess the ability of intracerebroventricularly infused compounds to enhance hippocampal neurogenesis in the contralateral hemisphere.
In order to further study Example 45 Compound, an in vivo structure activity relationship (SAR) study was conducted using 37 chemical derivatives of the compound for pro-neurogenic activity via direct administration into the brain of adult mice via Alzet minipumps. Compounds were administered for one week at 10 uM into 4 mice per compound, along with daily IP injections of BrdU. Following compound administration, animals were perfused, sacrificed and subjected to sectioning, staining and light microscopy in order to monitor hippocampal neurogenesis localized to the subgranular layer of the dentate gyrus. Roughly 10% of the variant compounds retained pro-neurogenic activity indistinguishable from the parent compound. […]

[3] = system: hippocampal neurogenesis in the DG; assay: Comparison of P7C3 compounds and antidepressant drugs: DG BrdU labeling after i.c.v. infusion; format: in vivo, mouse; settings: 10 μM i.c.v. for 7 days
Text: The neuroprotective efficacies of both P7C3 and P7C3-A20 were next compared to currently marketed antidepressant medications, using screening conditions identical to those by which P7C3 was originally discovered. This experiment was based on the antidepressant actions of P7C3 and P7C3-A20 characterized here, and the dependence on hippocampal neurogenesis for behavioral efficacy of some marketed antidepressant medications in mice.
Proneurogenic efficacies in the DG of P7C3 and P7C3A20 were compared to those of vehicle (artificial cerebrospinal fluid) and several marketed antidepressant compounds (Sigma-Aldrich, St. Louis, Mo.) according to established methods. In brief, mice were housed individually in cages without running wheels or any form of environmental enrichment, in order to create an environment predicted to have as low of a baseline level of hippocampal neurogenesis as possible. Compounds (10 μM, i.c.v.) were administered for 7 days via subcutaneously implanted Alzet osmotic minipumps connected to a cannula directed into the left lateral ventricle, with implantation day designated as day 0. Starting on day 1, mice also received daily injections of BrdU (50 mg/kg, i.p.) at 9 am daily, for 6 days. Twenty four hours after the sixth BrdU injection, mice were transcardially perfused as described above.

| Structure (SMILES) | activity in the MPTP protection assay [1] | pro-neurogenic activity in the in vivo hippocampal neurogenesis assay [2] | further results |
| --- | --- | --- | --- |
| Cc1cc(C)n(CC(O)Cn2c3ccc(Br)cc3c3cc(Br)ccc32)n1 (centres unmarked) [Example P7C3-S25] | active in both | active in both |  |
| COc1cccc(NCC(C)(O)Cn2c3ccc(Br)cc3c3cc(Br)ccc32)c1 (centres unmarked) [Example P7C3-S54] | retain neuroprotective activity in both assays | retain neuroprotective activity in both assays |  |
| N[C@@H]1C[C@H]1c1ccccc1 (racemic) [tranylcypromine] |  |  | increase of DG neurogenesis (BrdU labeling) over vehicle [3]: did not affect the magnitude of neurogenesis |
| CN1CCN2c3ncccc3Cc3ccccc3C2C1 (centres unmarked) [mirtazapine] |  |  | increase of DG neurogenesis (BrdU labeling) over vehicle [3]: did not affect the magnitude of neurogenesis |
| CN[C@H]1CC[C@@H](c2ccc(Cl)c(Cl)c2)c2ccccc21 [sertraline] |  |  | increase of DG neurogenesis (BrdU labeling) over vehicle [3]: did not affect the magnitude of neurogenesis |
| COc1ccc(C(CN(C)C)C2(O)CCCCC2)cc1 (centres unmarked) [venlafaxine] |  |  | increase of DG neurogenesis (BrdU labeling) over vehicle [3]: did not affect the magnitude of neurogenesis |
| OC(CSc1ccccc1)Cn1c2ccc(Br)cc2c2cc(Br)ccc21 (centres unmarked) [Example P7C3-S7] | active in both | active in both | activity in the MPTP protection assay ([1]; listed as P7C3S7): potency equal to or greater than P7C3 in both in vivo assays; pro-neurogenic activity in the in vivo hippocampal neurogenesis assay ([2]; listed as P7C3S7): potency equal to or greater than P7C3 in both in vivo assays |
| CN(C)CCCN1c2ccccc2CCc2ccccc21 [imipramine] |  |  | increase of DG neurogenesis (BrdU labeling) over vehicle [3]: did not affect the magnitude of neurogenesis |
| O=C(O)Cn1c2ccc(Br)cc2c2cc(Br)ccc21 [Example P7C3-S165] | neuroprotection was observed in both assays | neuroprotection was observed in both assays |  |
| OC(COc1ccccc1)Cn1c2ccc(Br)cc2c2cc(Br)ccc21 (centres unmarked) [Example P7C3S40] | neuroprotective activity in both assays resides exclusively in the S enantiomer | neuroprotective activity in both assays resides exclusively in the S enantiomer |  |
| COc1cccc(NCC(O)Cn2c3ccc(Br)cc3c3cc(Br)ccc32)c1 (single isomer, unassigned; (+)) [(+) (dextrorotatory) enantiomer of 1-(3,6-Dibromo-9H-carbazo] |  | higher activity |  |
| COc1cccc(NCC(O)Cn2c3ccc(Br)cc3c3cc(Br)ccc32)c1 (single isomer, unassigned; (-)) [(−) enantiomer of Example 62 Compound, 1-(3,6-Dibromo-9H-carbazol-9-yl)-3-(3-methoxyphenylamino)-propan-2-ol] |  | displayed diminished activity |  |
| COc1cccc(NCC(O)Cn2c3ccc(Br)cc3c3cc(Br)ccc32)c1 (single isomer, unassigned; (-)) [(−) (levorotatory) enantiomer of 1-(3,6-Dibromo-9H-carbazol-] |  | lower activity |  |
| COc1cccc(NCC(F)Cn2c3ccc(Br)cc3c3cc(Br)ccc32)c1 (single isomer, unassigned) [Example 144a, N-(3-(3,6-dibromo-9H-carbazol-9-yl)-2-fluoropropyl)-3-methoxyaniline] |  | more active than P7C3-S114 |  |
| O[C@H](COc1ccccc1)Cn1c2ccc(Br)cc2c2cc(Br)ccc21 [Example P7C3S41] | neuroprotective activity in both assays resides exclusively in the S enantiomer; also recorded: potency equal to or greater than P7C3 in both in vivo assays | neuroprotective activity in both assays resides exclusively in the S enantiomer; also recorded: potency equal to or greater than P7C3 in both in vivo assays |  |
| OC(CNc1ncccn1)Cn1c2ccc(Br)cc2c2cc(Br)ccc21 (centres unmarked) [Example P7C3-S8] | devoid of activity in both assays | devoid of activity in both assays |  |
| COc1cccc(NCC(O)Cn2c3ccc(Br)cc3c3cc(Br)ccc32)c1 (centres unmarked) [Example 62 Compound, 1-(3,6-Dibromo-9H-carbazol-9-yl)-3-(3-methoxyphenylamino)-propan-2-ol] |  | activity comparable to Example 45 Compound; also recorded: retained robust activity |  |
